# Measured values: US7619005B2, “Methods for treating cognitive impairment in humans with Multiple Sclerosis” (Cognition Pharmaceuticals LLC, priority 2000, dated 2009)
# Values joined by “and” are separate entries in the source; they are usually repeats but may differ in a detail not shown here. Equal values may be shown once.
# Columns and labels:
# [1] = test system: scopolamine treated rats; assay: Passive Avoidance in scopolamine treated rats (memory impairment); format: in vivo, rat
# [2] = test system: rats; assay: Inhibitory Avoidance task, normal rats
# Experimental: The paradigms consists of one training trial and one retention trial. Test substances may be administered to the rats either before or after training. Improved memory, as a result of test substance administration, is evident on the retention trial.
# (§1) Two seconds after entering the dark chamber, a continuous 0.46 mA foot-shock was delivered through the floor grid for two seconds. The animal was then removed from the apparatus and returned to the home cage. The animals received a retention test 24 hours following training. The retention test was identical to training except that no foot-shock was delivered. […] Data was collected by the Graphic State™ Notation software, and was recorded onto an appropriate data sheet.
# [3] = test system: healthy adult male and female subjects; assay: Phase 1 studies of C105: safety and tolerability; format: in vivo, human
# Excerpt: Safety and tolerability assessments were changes in vital signs, ECGs, Holter monitoring, laboratory tests, physical examination and adverse events.
# [4] = test system: rats; assay: Tail-Flick Analgesia Testing (C105); format: in vivo, rat; design: Tail-Flick Analgesia (latency to flick tail): unit not given here; details: for Tail-Flick Analgesia (latency to flick tail): each animal
# Experimental: For Tail-Flick Analgesia Testing, the animal was placed on top of the Tail-Flick monitor and gently held in place with a cotton towel. The tail of the animal was placed in a shallow groove lying between two sensors and over the top of a radiant heat wire. The Tail Flick monitor was activated, and the latency for the animal to flick its tail out of the groove and away from the heat source was recorded. The animal was returned to its home cage immediately following testing.
# [5] = test system: rats with bilateral lesions of the fornix; assay: Inhibitory Avoidance task, fornix lesion rats; details: for latency to enter the dark side of the apparatus: Fornix lesion rats, each animal
# Experimental: as §1
# [6] = test system: rats; assay: Spontaneous Object Recognition task, normal rats; details: 0.5 mg/kg immediately following training
# Excerpt: Apparatus for Object Recognition testing consisted of a plexiglass open field activity chamber, measuring 30 by 30 cm. A video camera was mounted on the wall above the chamber. Three plastic objects served as stimuli for the experiment. Two of the objects were identical to one another, and the third was different. Rats were individually habituated to the open-field box for three consecutive days. Habituation sessions were six minutes in duration. Twenty-four hours after the last day of habituation, a training session was conducted, in which two identical objects were placed in the open-field box, 10 cm from the back wall. The animal was placed into the box and was allowed to explore freely for a period of four minutes. Twenty-four hours after the training session, retention testing was conducted. During retention testing, the rat was placed back into the same activity box with one of the familiar objects used during the training session and a novel object that the rat had not seen before. The rat was allowed to explore the box and objects for a period of four minutes. Testing was conducted at the same time each day, and was videotaped for off-line analysis. Two discrimination indices, D1 and D2 were calculated in order to measure the strength of recognition memory. […]
# [7] = test system: Long-Evans rats; assay: Passive Avoidance test, injection immediately after training; details: i.p. immediately after training; p values=0.007 (C105), 0.0004 (d-amphetamine), 0.03 (SN522)
# [8] = test system: Long-Evans rats; assay: Locomotor activity, activity monitoring chambers; format: in vivo, rat; details: higher doses (0.5, 2.5, 5.0 mg/kg ip) (FIG. 24)
# Experimental: Activity monitoring was conducted in a Plexiglas open-field box measuring 30 by 30 cm. […] The location of the animal within the cage was detected by breaks in the infrared light beams. Light beams status information was collected and rapidly analyzed by a computerized activity monitoring system (VersaMax System, Accuscan Instruments.)
# In order to determine whether SN522 had any adverse effects on locomotor or exploratory activity, rats were injected with saline or 0.25, 0.5, 2.5 and 5.0 mg/kg of SN522 and immediately afterwards placed into the activity monitoring chambers for a period of three hours.
# [9] = test system: rats; assay: Activity monitoring, open-field box, 10 minutes; details: 2 mg/kg; entire 10 minute session (FIG. 7)
# Experimental: Activity monitoring was conducted in a Plexiblas open-field box. Activity levels were measured by a grid of infrared light beams that traversed the cage from left to right and back to front. The location of the animal was detected by breaks in the infrared light beams. General behavior and activity levels were recorded by a computerized monitoring system for a period of ten minutes. The analyzed behaviors included but were not limited to; horizontal activity, total distance moved, movement time, number of movements, number of rears, number of stereotyped movements, and time spent resting. Data was collected on-line using Versa Max (Version 1.83) computer software and a Hewlett Packard Pavilion computer.
molecule,measurement,setting,value
(−)-1-methyl-2-phenylethylamine sulfate (2:1) [C105],performance vs animals treated with scopolamine and saline,"[1]; 1.0 mg/kg of C105, printed p>0.05",performed significantly better than animals treated with scopolamine and saline
same,alleviation of scopolamine impairment (step-through latency),"[1]; C105 i.p. immediately after training, log rank p=0.02 (FIG. 33)",effective at alleviating the impairment in the scopolamine-injected animals
same,latency to enter the dark side of the apparatus,"[2]; 0.4 mg/kg one hour prior to training, each animal, rank-ordered",231.0 s and 236.0 s and 250.0 s and 265.0 s and 629.0 s and 45.0 s and 62.0 s and 80.0 s and 87.0 s and 170.0 s
same,"Inhibitory Avoidance performance, post training administration","[2]; 0.5 mg/kg immediately after training (FIG. 11), p<0.0402",significantly enhanced performance on the Inhibitory Avoidance task
same,latency to enter the dark side of the apparatus,"[2]; 1.0 mg/kg one hour prior to training, each animal, rank-ordered",343.0 s and 729.0 s and 813.0 s and 824.0 s and 900.0 s and 101.0 s and 115.0 s and 121.0 s and 202.0 s and 265.0 s
same,Inhibitory Avoidance performance vs saline controls,"[2]; 1.0 mg/kg one hour prior to training, post hoc p<0.05",performed significantly better than saline injected controls
same,latency to enter the dark side of the apparatus,"[2]; 2.0 mg/kg one hour prior to training, each animal, rank-ordered",230.0 seconds and 231.0 seconds and 253.0 seconds and 366.0 seconds and 384.0 seconds and 30.0 seconds and 59.0 seconds (2×) and 127.0 seconds and 137.0 seconds
same,latency to enter the dark side of the apparatus,"[2]; Control rats, 0.5 mg/kg, each animal (Table 7)",214.0 s and 240.0 s and 252.0 s and 271.0 s and 284.0 s
same,latency to enter the dark side of the apparatus,"[2]; Control rats, 1.0 mg/kg, each animal (Table 7)",106.0 s and 195.0 s and 197.0 s and 213.0 s and 238.0 s
same,latency to enter the dark side of the apparatus,"[2]; Control rats, 2.0 mg/kg, each animal (Table 7)",86.0 s and 92.0 s and 106.0 s and 160.0 s and 192.0 s
same,latency to enter the dark side of the apparatus,"[2]; Control rats, 4.0 mg/kg, each animal (Table 7)",83.0 seconds (2×) and 86.0 seconds and 98.0 seconds and 193.0 seconds
same,"mnemonic performance, Inhibitory Avoidance","[2]; doses lower than 0.5 mg/kg (0.1, […]) one hour prior to training",not effective in improving the mnemonic performance
same,latency to enter the dark side of the apparatus,"[2]; low doses: 0.1 mg/kg one hour prior to training, each animal, 0.1 mg/kg",55.0 seconds (2×) and 110.0 seconds and 113.0 seconds and 124.0 seconds and 366.0 seconds and 37.0 seconds (2×) and 39.0 seconds (2×)
same,serious adverse events,[3]; single oral doses 5 to 45 mg,no reported serious adverse events
same,most frequently reported adverse events,"[3]; single oral doses 5 to 45 mg, generally mild","dizziness, headache, insomnia, sinus tachycardia, supraventricular tachycardia and aptyalism"
same,tolerability,[3]; single oral doses ranging from 5 to 45 mg,well tolerated
same,Tail-Flick Analgesia (latency to flick tail),[4]; 1.0 mg/kg one hour prior to testing,4.60 and 5.09 and 6.01 and 1.13 and 2.28 and 3.26 and 3.30 and 4.59
same,Tail-Flick Analgesia (latency to flick tail),[4]; 2.0 mg/kg one hour prior to testing,3.89 and 3.96 and 4.45 and 2.46 and 2.68 and 2.79 and 3.05 and 3.56
same,Tail-Flick Analgesia (latency to flick tail),[4]; 4.0 mg/kg one hour prior to testing,6.66 and 16.44 and 20.00 and 2.22 and 3.13 and 5.43 and 6.26 and 6.42
same,Tail-Flick Analgesia (latency to flick tail),[4]; 8.0 mg/kg one hour prior to testing,6.54 and 7.39 and 14.43 and 3.13 and 4.67 and 4.72 and 5.22
same,analgesic properties,[4]; 1.0 and 2.0 mg/kg one hour prior to testing,had no analgesic properties
same,analgesic properties,"[4]; 4.0 and 8.0 mg/kg one hour prior to testing, statistical significance at 4.0 mg/kg (p<0.0117)",did
same,dose most effective in improving the performance of the fornix lesion animals,"[5]; 0.5, 1.0, 2.0 and 4.0 mg/kg tested, one hour prior to testing (FIG. 12)",1.0 mg/kg
same,latency to enter the dark side of the apparatus,[5]; 0.5 mg/kg,21.0 seconds (2×) and 32.0 seconds and 55.0 seconds and 65.0 seconds and 72.0 seconds and 209.0 seconds and 4.0 seconds and 7.0 seconds and 13.0 seconds
same,latency to enter the dark side of the apparatus,[5]; 1.0 mg/kg,19.0 seconds (2×) and 166.0 seconds and 221.0 seconds and 246.0 seconds and 274.0 seconds and 314.0 seconds and 4.0 seconds and 7.0 seconds
same,latency to enter the dark side of the apparatus,[5]; 2.0 mg/kg,28.0 s and 30.0 s and 40.0 s and 70.0 s and 84.0 s and 153.0 s and 4.0 s and 17.0 s and 18.0 s and 26.0 s
same,latency to enter the dark side of the apparatus,[5]; 4.0 mg/kg,25.0 s and 28.0 s and 42.0 s and 96.0 s and 140.0 s and 159.0 s and 2.0 s and 8.0 s and 13.0 s and 21.0 s
same,discrimination indices D1 and D2 vs saline,[6]; p<0.0147 and p<0.0024,significantly higher
same,recognition memory,[6]; retention 24 h,significantly improved recognition memory
same,dose that significantly improved performance on the passive avoidance task,[7],0.5 mg/kg
"C[C@H](N)Cc1ccccc1 [(S)-(+)-amphetamine, reference compound]",latency to enter the dark side of the apparatus,"[2]; 0.5 mg/kg, each animal, rank-ordered, 24 h retention",65.0 seconds and 110.0 seconds and 153.0 seconds and 207.0 seconds (2×) and 2.0 seconds and 26.0 seconds and 38.0 seconds and 39.0 seconds and 63.0 seconds
same,latency to enter the dark side of the apparatus,"[2]; 1.0 mg/kg, each animal, rank-ordered, 24 h retention",34.0 s and 35.0 s and 47.0 s and 157.0 s and 263.0 s and 7.0 s and 17.0 s and 19.0 s and 25.0 s and 31.0 s
same,"Inhibitory Avoidance performance, dose experiment",[2]; 2.0 mg/kg one hour before training (Tables 1 and 2),appeared to enhance performance
same,IA performance of normal rats,"[2]; 2.0 mg/kg, one hour before (FIG. 5), p<0.05 vs all other groups",dramatically enhanced the performance of normal rats
same,memory for the Inhibitory Avoidance task,"[2]; 2.0 mg/kg, replicated experiments (FIG. 6), t(76)=3.416, p<0.001",significantly enhanced memory for the Inhibitory Avoidance task
same,latency to enter the dark side of the apparatus,"[2]; 2.0 mg/kg, each animal, rank-ordered, 24 h retention",190.0 s and 230.0 s and 245.0 s and 457.0 s and 517.0 s and 33.0 s and 63.0 s and 82.0 s and 84.0 s and 101.0 s
same,second retention test one week after the first retention test,"[2]; no additional training or drug (FIG. 4), p<0.01",performed significantly better than rats that had received control injections of vehicle solution
same,effects on activity,[8],profound increases in activity
same,"IA performance of fornix animals compared with normal, saline injected animals",[5]; 2.0 mg/kg (FIG. 5),"not significantly different from normal, saline injected animals"
same,IA performance of fornix lesion rats,"[5]; 2.0 mg/kg, one hour before (FIG. 5)",appeared to improve the performance of the fornix lesion rats
same,dose that significantly improved performance on the passive avoidance task,[7],2.0 mg/kg
same,locomotor activity,[9],clear and significant enhancement in locomotor activity
